Drawing on PubChem BioAssay (NCI), this text covers TGI for 8 compounds.

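Method: 48-hour compound exposure of cells in 96-well plates, five concentrations, linear interpolation of endpoints. The concentration for full growth arrest is given as TGI.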

Some test systems named below: DU-145 prostate; HCC-2998 colon; NCI-H226 lung; EKVX NSCLC; M14 melanoma; SN12C renal; T-47D breast; SNB-75 CNS; SW-620 colon; CAKI-1 renal; KM12 colon; K-562 leukemia; NCI-H23 lung; SK-OV-3 ovarian; BT-549 breast; SK-MEL-2 melanoma; SF-295 CNS; HOP-92 NSCLC; ACHN renal.
Holding throughout (experiment): inhibition of tumour cell growth, NCI panel, 48 h

As to `CSc1c(C#N)c(S)n(-c2ccc(Cl)cc2)c(=O)c1C#N`, the TGI in the assay with DU-145 prostate, in the assay on HCC-2998 colon, with NCI-H226 lung, in the assay on EKVX NSCLC, in the assay with M14 melanoma and with SN12C renal was over 100 µM each time. Further, the TGI in the assay with T-47D breast, in the assay with SNB-75 CNS, in the assay with SW-620 colon, in the assay with CAKI-1 renal, with KM12 colon and in the assay with K-562 leukemia was over 100 µM throughout. In addition, the TGI in the assay with NCI-H23 lung, in the assay with SK-OV-3 ovarian, in the assay on BT-549 breast and with SK-MEL-2 melanoma was over 100 µM throughout.

On to `Cc1ccc(S(=O)(=O)N2CC(CCN)c3ccccc32)cc1` (stereo not drawn), for which the TGI with DU-145 prostate amounted to 31.3 µM; with SF-295 CNS, 33.5 µM; with HCC-2998 colon, 30.3 µM; in the assay on NCI-H226 lung it was 11.6 µM; with EKVX NSCLC, 82.4 µM; with HOP-92 NSCLC, 52.7 µM. For the same compound, the TGI was 8.4 µM in the assay with M14 melanoma; 10.7 µM in the assay on SN12C renal; 26.5 µM with SNB-75 CNS; 18 µM with SW-620 colon; 23.8 µM with CAKI-1 renal; over 100 µM with KM12 colon. Besides, the TGI in the assay on K-562 leukemia is over 60.8 µM; in the assay with NCI-H23 lung it was over 52.6 µM; with SK-OV-3 ovarian it was over 44.7 µM; in the assay with BT-549 breast, 21.9 µM; with SK-MEL-2 melanoma, 13.4 µM; in the assay with ACHN renal, over 53.2 µM.

With `C=C(C)CCC1CC=[N+]([O-])OC1C(C)(C)C` (stereo not drawn), the TGI with DU-145 prostate was over 100 µM; in the assay on SF-295 CNS, over 100 µM; with HCC-2998 colon it was over 100 µM; with NCI-H226 lung it was 48.9 µM; in the assay on EKVX NSCLC, over 100 µM; in the assay on HOP-92 NSCLC it was over 100 µM. Also, the TGI was 63.5 µM with M14 melanoma; over 100 µM with SN12C renal; 90.1 µM with T-47D breast; over 100 µM in the assay on SNB-75 CNS; over 100 µM in the assay on SW-620 colon; 75.3 µM in the assay with CAKI-1 renal. The TGI with KM12 colon was 64.8 µM; with K-562 leukemia, over 100 µM; in the assay with SK-OV-3 ovarian, over 100 µM; in the assay on ACHN renal, over 100 µM.

With `CCOC(=O)/C=C/C1(CCOC(C)=O)CCCCC1`, the TGI in the assay on DU-145 prostate, in the assay with SF-295 CNS, in the assay on HCC-2998 colon, in the assay with NCI-H226 lung, in the assay with EKVX NSCLC and with HOP-92 NSCLC was over 10 µM throughout. Further, the TGI with M14 melanoma, in the assay on SN12C renal, with T-47D breast, in the assay on SNB-75 CNS, in the assay with SW-620 colon and in the assay with CAKI-1 renal was over 10 µM each time. In addition, the TGI with KM12 colon, with K-562 leukemia, in the assay on NCI-H23 lung, in the assay with SK-OV-3 ovarian, with SK-MEL-2 melanoma and with ACHN renal was over 10 µM in each case.

Take `CN1CCC/C1=C1/C(=O)N(c2ccccc2)N=C1c1ccc[nH]1`: the TGI in the assay with DU-145 prostate, in the assay with SF-295 CNS, in the assay with HCC-2998 colon, with NCI-H226 lung, with EKVX NSCLC and in the assay on M14 melanoma was over 100 µM each time. Further, the TGI with SN12C renal, in the assay on T-47D breast, in the assay on SNB-75 CNS, in the assay on SW-620 colon, with CAKI-1 renal and with KM12 colon was over 100 µM each time. The TGI in the assay with K-562 leukemia, in the assay with NCI-H23 lung, with BT-549 breast, in the assay with SK-MEL-2 melanoma and with ACHN renal was over 100 µM in each case.

For `CSc1nc2c3ccccc3ccn2c1C(=O)N/N=C/c1ccccc1`, the TGI with DU-145 prostate is over 100 µM; with SF-295 CNS, over 72.4 µM; with HCC-2998 colon it was over 100 µM; in the assay with NCI-H226 lung it was over 100 µM; with EKVX NSCLC it was over 100 µM; in the assay on HOP-92 NSCLC, over 33.8 µM. In addition, the TGI was over 100 µM with M14 melanoma; over 100 µM with SN12C renal; over 90.2 µM in the assay with T-47D breast; over 71.2 µM in the assay on SNB-75 CNS; over 100 µM in the assay with SW-620 colon; over 40 µM with CAKI-1 renal. Besides, the TGI is over 100 µM with KM12 colon; over 100 µM with K-562 leukemia; over 100 µM with NCI-H23 lung; 43.7 µM in the assay with SK-OV-3 ovarian; over 100 µM in the assay on SK-MEL-2 melanoma; 25.3 µM in the assay with ACHN renal.

Take `Nc1[nH]c(=O)[nH]c(=O)c1Cc1cccc(Cl)c1`: the TGI in the assay on SF-295 CNS, in the assay with HCC-2998 colon, with NCI-H226 lung, in the assay with EKVX NSCLC, in the assay with HOP-92 NSCLC and with M14 melanoma was over 100 µM throughout. Also, the TGI with SN12C renal, in the assay with T-47D breast, with SNB-75 CNS, in the assay with SW-620 colon, in the assay with CAKI-1 renal and in the assay with KM12 colon was over 100 µM throughout. Moreover, the TGI with K-562 leukemia, in the assay with NCI-H23 lung, in the assay on SK-OV-3 ovarian, in the assay with BT-549 breast, in the assay with SK-MEL-2 melanoma and with ACHN renal was over 100 µM in each case.

For the compound `CCC(=O)C(CCN1CCC(N2C(=O)C(CCC#N)c3ccccc32)CC1)(c1ccccc1)c1ccccc1` (stereo not drawn), the TGI in the assay with DU-145 prostate was 26.5 µM; in the assay with SF-295 CNS it was 26.1 µM; in the assay with HCC-2998 colon, 25.2 µM; with NCI-H226 lung, 32.6 µM; with M14 melanoma, 22.2 µM; in the assay with SN12C renal, 34 µM. Further, the TGI with T-47D breast worked out at 29.3 µM; in the assay with SNB-75 CNS, 31.7 µM; in the assay on SW-620 colon it was 24 µM; in the assay on CAKI-1 renal, 96.4 µM; in the assay on KM12 colon, 28 µM; in the assay with K-562 leukemia, 23.1 µM. Further, the TGI in the assay with NCI-H23 lung was 48.8 µM; with SK-OV-3 ovarian, 37.9 µM; in the assay with BT-549 breast, 26.2 µM; in the assay on SK-MEL-2 melanoma, 29.7 µM; in the assay with ACHN renal, 43.8 µM.
